Measurements reported in patent US7547690B2, “Compounds for the treatment of Hepatitis C” (Bristol-Myers Squibb Company, priority 2007, dated 2009).
Like-named read-outs stand apart in the source and are kept apart here.

Legend:
[1] = system: HCV replicon cells; assay: HCV replicon FRET / luciferase assay; format: cell-based
Description: FRET Assay Preparation. The HCV FRET screening assay was performed in 96-well cell culture plates. The FRET peptide (Anaspec, Inc.) (Taliani et al., Anal. Biochem. 1996, 240, 60-67) contains a fluorescence donor, EDANS, near one end of the peptide and an acceptor, DABCYL, near the other end. The fluorescence of the peptide is quenched by […] resonance energy transfer (RET) between the donor and the acceptor, but as the NS3 protease cleaves the peptide the products are released from RET quenching and the fluorescence of the donor becomes apparent. The assay reagent was made as follows: 5× cell Luciferase cell culture lysis reagent from Promega (#E153A) diluted to 1× with dH2O, NaCl added to 150 mM final, the FRET peptide diluted to 20 μM final from a 2 mM stock.
To prepare plates, HCV replicon cells, with or without a Renilla luciferase reporter gene, were trypsinized and plated in a 96-well plate with titrated test compounds added in columns 3 through 12; columns 1 and 2 contained a control compound (HCV control inhibitor), and the bottom row contained cells with DMSO only. The plates were then placed in a CO2 incubator at 37° C.
Assays. Subsequent to addition of the test compounds described above (FRET Assay Preparation), at various times the plate was removed and Alamar blue solution (Trek Diagnostics, #00-100) was added to measure cellular toxicity. After reading in a Cytoflour 4000 instrument (PE Biosystems), plates were rinsed with PBS and then used for FRET assay by the addition of 30 ul of the FRET peptide assay reagent described above (FRET Assay Preparation) per well. The plate was then placed into the Cytoflour 4000 instrument which had been set to 340 excite/490 emission, automatic mode for up to 20 cycles and the plate read in a kinetic mode. Typically, the signal to noise using an endpoint analysis after the reads was at least three-fold. Alternatively, after Alamar blue reading, plates were rinsed with PBS, then used for luciferase assay using the Promega Dual-Glo Luciferase Assay System or the Promega EnduRen Live Cell Substrate assay.
Compound analysis was performed by quantification of the relative HCV replicon inhibition and the relative cytotoxicity values. To calculate cytoxicity values, the average Alamar Blue fluorescence signals from the control wells were set as 100% non-toxic. The individual signals in each of the compound test wells were then divided by the average control signal and multiplied by 100% to determine […]. To calculate the HCV replicon inhibition values, an average background value was obtained from the two wells containing the highest amount of HCV control inhibitor at the end of the assay period. These numbers were similar to those obtained from naïve Huh-7 cells. The background numbers were then subtracted from the average signal obtained from the control wells and this number was used as 100% activity. The individual signals in each of the compound test wells were then divided by the averaged control values after background subtraction and multiplied by 100% to determine percent activity. EC50 values were calculated as the concentration which caused a 50% reduction in FRET or luciferase activity. The two numbers generated for the compound plate, percent cytoxicity and percent activity, were used to determine compounds of interest for further analysis.

[2] = target: T1, HCV NS5B (Hepatitis C virus genotype 1b, UniProt Q9WMX2); assay: HCV NS5B RdRp enzyme assay (standard / modified); format: biochemical; conditions: standard or modified assay not specified
T1 construct: The protein was expressed with an 18 amino acid C-terminal truncation to enhance the solubility; made in house; host or cells: E. coli BL21(DE3)
T1 sequence (Q9WMX2 2420-2992): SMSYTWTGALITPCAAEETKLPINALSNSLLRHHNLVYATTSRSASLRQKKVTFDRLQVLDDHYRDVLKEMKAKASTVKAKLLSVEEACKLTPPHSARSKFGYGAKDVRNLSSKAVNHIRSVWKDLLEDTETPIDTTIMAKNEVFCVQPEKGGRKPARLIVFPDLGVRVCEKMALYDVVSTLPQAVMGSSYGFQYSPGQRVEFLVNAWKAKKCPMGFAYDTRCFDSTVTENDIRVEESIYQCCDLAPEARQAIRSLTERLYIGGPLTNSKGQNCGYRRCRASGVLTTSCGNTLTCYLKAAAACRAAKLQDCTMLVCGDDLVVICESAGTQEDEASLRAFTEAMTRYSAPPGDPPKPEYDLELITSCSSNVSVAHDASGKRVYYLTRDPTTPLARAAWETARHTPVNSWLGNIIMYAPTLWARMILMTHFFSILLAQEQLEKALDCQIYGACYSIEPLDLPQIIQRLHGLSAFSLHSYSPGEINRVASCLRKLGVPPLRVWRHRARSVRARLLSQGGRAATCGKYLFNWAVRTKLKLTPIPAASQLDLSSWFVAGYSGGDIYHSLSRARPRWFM
Description: HCV NS5B RdRp cloning, expression, and purification. The cDNA encoding the NS5B protein of HCV, genotype 1b, was cloned into the pET21a expression vector. The protein was expressed with an 18 amino acid C-terminal truncation to enhance the solubility. The E. coli competent cell line BL21(DE3) was used for expression of the protein. Cultures were grown at 37° C. for ˜4 hours until the cultures reached an optical density of 2.0 at 600 nm. The cultures were cooled to 20° C. and induced with 1 mM IPTG. Fresh ampicillin was added to a final concentration of 50 μg/ml and the cells were grown overnight at 20° C.
Cell pellets (3 L) were lysed for purification to yield 15-24 mgs of purified NS5B. The lysis buffer consisted of 20 mM Tris-HCl, pH 7.4, 500 mM NaCl, 0.5% triton X-100, 1 mM DTT, 1 mM EDTA, 20% glycerol, 0.5 mg/ml lysozyme, 10 mM MgCl2, 15 ug/ml deoxyribonuclease I, and Complete TM protease inhibitor tablets (Roche). After addition of the lysis buffer, frozen cell pellets were resuspended using a tissue homogenizer. To reduce the viscosity of the sample, aliquots of the lysate were sonicated on ice using a microtip attached to a Branson sonicator. The sonicated lysate was centrifuged at 100,000×g for 1 hr at 4° C. and filtered through a 0.2 μm filter unit (Corning).
The protein was purified using two sequential chromatography steps: Heparin sepharose CL-6B and polyU sepharose 4B (Pharmacia). The chromatography buffers were identical to the lysis buffer but contained no lysozyme, deoxyribonuclease I, MgCl2 or protease inhibitor and the NaCl concentration of the buffer was adjusted according to the requirements for charging the protein onto the column. Each column was eluted with a NaCl gradient which varied in length from 5-50 column volumes depending on the column type. After the final chromatography step, the resulting purity of the enzyme is >90% based on SDS-PAGE analysis. The enzyme was aliquoted and stored at −80° C.
Standard HCV NS5B RdRp enzyme assay. HCV RdRp genotype 1b assays were run in a final volume of 60 μl in 96 well plates (Corning 3600). The assay buffer is composed of 20 mM Hepes, pH 7.5, 2.5 mM KCl, 2.5 mM MgCl2, 1 mM DTT, 1.6 U RNAse inhibitor (Promega N2515), 0.01 mg/ml BSA (Sigma B6917), and 2% glycerol. All compounds were serially diluted (3-fold) in DMSO and diluted further in water such that the final concentration of DMSO in the assay was 2%. HCV RdRp genotype 1b enzyme was used at a final concentration of 28 nM. A polyA template was used at 6 nM, and a biotinylated oligo-dT12 primer was used at 180 nM final concentration. Template was obtained commercially (Amersham 27-4110). Biotinylated primer was prepared by Sigma Genosys. 3H-UTP was used at 0.6 μCi (0.29 μM total UTP). Reactions were initiated by the addition of enzyme, incubated at 30 ° C. for 60 min, and stopped by adding 25 μl of 50 mM EDTA containing SPA beads (4 μg/μl, Amersham RPNQ 0007). Plates were read on a Packard Top Count NXT after >1 hr incubation at room temperature.
Modified HCV NS5B RdRp enzyme assay. A modified enzyme assay was performed essentially as described for the standard enzyme assay except for the following: The biotinylated oligo dT12 primer was precaptured on streptavidin-coated SPA beads by mixing primer and beads in assay buffer and incubating at room temperature for one hour. Unbound primer was removed after centrifugation. The primer-bound beads were resuspended in 20 mM Hepes buffer, pH 7.5 and used in the assay at final concentrations of 20 nM primer and 0.67 μg/μl beads. Order of addition in the assay: enzyme (1.75 nM) was added to diluted compound followed by the addition of a mixture of template (0.36 nM), 3H-UTP (0.6 μCi, 0.29 μM), and primer-bound beads, to initiate the reaction; concentrations given are final. Reactions were allowed to proceed for 4 hours at 30° C.
IC50 values for compounds were determined using seven different [I]. […]

[3] = Hepatitis C virus, 50% reduction in FRET or luciferase activity in HCV replicon cells, read-out: EC50
[4] = HCV RdRp genotype 1b, read-out: IC50

SMILES | EC50 [1, 3] [nM] | IC50 [2, 4] [nM] | EC50 ([1]; 50% reduction in FRET or luciferase activity in HCV replicon cells, read-out: EC50) [nM] | EC50 ([1]; Hepatitis C virus) [nM] | IC50 ([2]; IC50, HCV RdRp genotype 1b) [nM]
CCC(C)S(=O)(=O)NC(=O)c1ccc2c(C3CCCCC3)c3n(c2c1)CC1(C(=O)N2C4CN(C)CC2CN(Cc2ccccc2)C4)CC1c1cc(OC)ccc1-3 (stereo not shown) | 2.4 to 500 | 2.4 to 500 |  |  | 
COc1ccc2c(c1)C1CC1(C(=O)N1CC3CN(C)CC(C1)N3C(C)=O)Cn1c-2c(C2CCCCC2)c2ccc(C(=O)NS(=O)(=O)N(C)C)cc21 (stereo not shown) | 2.4 to 500 | 2.4 to 500 |  |  | 
COc1ccc2c(c1)C1CC1(C(=O)N1C3CC1CN(Cc1ccccc1)C3)Cn1c-2c(C2CCCCC2)c2ccc(C(=O)NS(=O)(=O)CC(C)C)cc21 (stereo not shown) | 2.4 to 500 | 2.4 to 500 |  |  | 
COc1ccc2c(c1)C1CC1(C(=O)N1C[C@@H]3C[C@H]1CN3C)Cn1c-2c(C2CCCCC2)c2ccc(C(=O)NS(=O)(=O)C3CC3)cc21 (stereo partly shown) [drawing 51] |  | 2.4 to 500 | > 500 |  | 
COc1ccc2c(c1)C1CC1(C(=O)N1C[C@@H]3C[C@H]1CN3C(=O)OC(C)(C)C)Cn1c-2c(C2CCCCC2)c2ccc(C(=O)NS(=O)(=O)N(C)C)cc21 (stereo partly shown) | 2.4 to 500 | 2.4 to 500 |  |  | 
COc1ccc2c(c1)C1CC1(C(=O)N1CC3CCC1CN3)Cn1c-2c(C2CCCCC2)c2ccc(C(=O)NS(=O)(=O)C3CCCC3)cc21 (stereo not shown) | > 1000 | 2.4 to 500 |  |  | 
CCN1C[C@H]2C[C@@H]1CN2C(=O)C12CC1c1cc(OC)ccc1-c1c(C3CCCCC3)c3ccc(C(=O)NS(C)(=O)=O)cc3n1C2 (stereo partly shown) | 2.4 to 500 | 2.4 to 500 |  |  | 
COc1ccc2c(c1)C1CC1(C(=O)N1C3CC1CN(C)C3)Cn1c-2c(C2CCCCC2)c2ccc(C(=O)NS(=O)(=O)C3CCC3)cc21 (stereo not shown) | 2.4 to 500 | 2.4 to 500 |  |  | 
COc1ccc2c(c1)[C@@H]1C[C@]1(C(=O)N1C3CCC1C1CCC3N1C)Cn1c-2c(C2CCCCC2)c2ccc(C(=O)NS(=O)(=O)N(C)C)cc21 [drawing 160] |  |  |  | 2.4 to 500 | 2.4 to 500
COc1ccc2c(c1)C1CC1(C(=O)N1C3CC1CN(Cc1ccccc1)C3)Cn1c-2c(C2CCCCC2)c2ccc(C(=O)NS(=O)(=O)C3CCCCC3)cc21 (stereo not shown) | 500 to 5000 | 2.4 to 500 |  |  | 
COc1ccc2c(c1)C1CC1(C(=O)N1C3COCC1CN(C)C3)Cn1c-2c(C2CCCCC2)c2ccc(C(=O)NS(=O)(=O)N(C)C)cc21 (stereo not shown) | 2.4 to 500 | 2.4 to 500 |  |  | 
COc1ccc2c(c1)[C@@H]1C[C@]1(C(=O)N1[C@@H]3C[C@H]1CN(Cc1ccccc1)C3)Cn1c-2c(C2CCCCC2)c2ccc(C(=O)NS(=O)(=O)N(C)C)cc21 | 2.4 to 500 | 2.4 to 500 |  |  | 
COc1ccc2c(c1)C1CC1(C(=O)N1[C@@H]3C[C@H]1CN(C)C3)Cn1c-2c(C2CCCCC2)c2ccc(C(=O)NS(=O)(=O)N3CCC3)cc21 (stereo partly shown) | 2.4 to 500 | 2.4 to 500 |  |  | 
COc1ccc2c(c1)C1CC1(C(=O)N1CC3COCC(C1)N3Cc1ccccc1)Cn1c-2c(C2CCCCC2)c2ccc(C(=O)NS(=O)(=O)N(C)C)cc21 (stereo not shown) | 2.4 to 500 | 2.4 to 500 |  |  | 
COc1ccc2c(c1)C1CC1(C(=O)N1CC3COCC(C1)N3)Cn1c-2c(C2CCCCC2)c2ccc(C(=O)NS(=O)(=O)N(C)C)cc21 (stereo not shown) | 2.4 to 500 | 2.4 to 500 |  |  | 
COc1ccc2c(c1)C1CC1(C(=O)N1C3CC1CN(Cc1ccccc1)C3)Cn1c-2c(C2CCCCC2)c2ccc(C(=O)NS(=O)(=O)CCC(F)(F)F)cc21 (stereo not shown) | 500 to 5000 | 2.4 to 500 |  |  | 
COc1ccc2c(c1)C1CC1(C(=O)N1CC3CCC1CN3)Cn1c-2c(C2CCCCC2)c2ccc(C(=O)NS(=O)(=O)CCC(F)(F)F)cc21 (stereo not shown) | > 1000 | 2.4 to 500 |  |  | 
COc1ccc2c(c1)C1CC1(C(=O)N1C[C@H]3C[C@@H]1CN3C(=O)OC(C)(C)C)Cn1c-2c(C2CCCCC2)c2ccc(C(=O)NS(C)(=O)=O)cc21 (stereo partly shown) | 2.4 to 500 | 2.4 to 500 |  |  | 
COc1ccc2c(c1)C1CC1(C(=O)N1C3CC1CN(C)C3)Cn1c-2c(C2CCCCC2)c2ccc(C(=O)NS(=O)(=O)N3CCOCC3)cc21 (stereo not shown) | 2.4 to 500 | 2.4 to 500 |  |  | 
COc1ccc2c(c1)[C@@H]1C[C@]1(C(=O)N1CC3CC(C1)N3C)Cn1c-2c(C2CCCCC2)c2ccc(C(=O)NS(=O)(=O)N(C)C)cc21 | 2.4 to 500 | 2.4 to 500 |  |  | 
COc1ccc2c(c1)C1CC1(C(=O)N1C3COC[C@@H]1CN(C)C3)Cn1c-2c(C2CCCCC2)c2ccc(C(=O)NS(=O)(=O)C3CCCCC3)cc21 (stereo partly shown) | 2.4 to 500 | 2.4 to 500 |  |  | 
CCC(C)S(=O)(=O)NC(=O)c1ccc2c(C3CCCCC3)c3n(c2c1)CC1(C(=O)N2CC4CCC2CN4)CC1c1cc(OC)ccc1-3 (stereo not shown) | 500 to 5000 | 2.4 to 500 |  |  | 
COc1ccc2c(c1)[C@@H]1C[C@]1(C(=O)N1C3CCC1CN(C)CC3)Cn1c-2c(C2CCCCC2)c2ccc(C(=O)NS(=O)(=O)C(C)C)cc21 (stereo partly shown) | 2.4 to 500 | 2.4 to 500 |  |  | 
COc1ccc2c(c1)[C@@H]1C[C@]1(C(=O)N1CC3CC1CN3C)Cn1c-2c(C2CCCCC2)c2ccc(C(=O)NS(=O)(=O)N(C)C)cc21 (stereo partly shown) | 2.4 to 500 | < 20 |  |  | 
COc1ccc2c(c1)C1CC1(C(=O)N1C3CC1CN(C)C3)Cn1c-2c(C2CCCCC2)c2ccc(C(=O)NS(=O)(=O)CC3CCCO3)cc21 (stereo not shown) | 2.4 to 500 | 2.4 to 500 |  |  | 
CCN1C[C@H]2C[C@@H]1CN2C(=O)C12CC1c1cc(OC)ccc1-c1c(C3CCCCC3)c3ccc(C(=O)NS(=O)(=O)C4CC4)cc3n1C2 (stereo partly shown) [drawing 43] | 2.4 to 500 | < 20 |  |  | 
